# Patent publication US9655884B2, “Antiparasitic use of isoxazoline compounds” (Intervet Inc., priority 2013, dated 2017)
# System: adult fleas (C. felis)
# Experiment: In vitro membrane feeding exposure to assess flea reproduction
# Design: species or system Ctenocephalides felis
# Settings: for Effect on hatching of larvae: flea groups able to lay eggs, all concentrations
# Description: A membrane feeding method [Wade S E, Georgi J R. Survival and reproduction of artificially fed cat fleas, Ctenocephalides felis Bouché (Siphonaptera: Pulicidae). J Med Entomol 1988, 25: 186-190.] was modified to assess the impact of fluralaner exposure on flea reproduction. Defibrinated sheep blood was prepared in a series of dilutions with fluralaner to obtain concentrations between 50.0 and 0.09 ng/mL. These test solutions were prepared twice and each preparation was tested in duplicate resulting in a total of 4 replicates per concentration, along with a fluralaner negative solvent control (a solvent concentration equivalent to that of the highest concentrated fluralaner test solution) and an untreated control.
# Unfed adult fleas (C. felis; 20 males and 20 females) were placed into a plastic unit that was then closed with a gauze lid. A grid inside the plastic unit divided the unit into 2 chambers, an upper chamber for flea feeding and a lower chamber for egg collection. Test or control blood preparations (2 ml) were placed in an artificial membrane closed glass tube that was then placed on the plastic unit as the food source. Feeding units were incubated (38° C. and 60% RH) for 10 days. Test and negative control blood preparations were freshly prepared and exchanged (on days 1, 3, 5, and 8) to permit continuous flea feeding. Fleas were transferred into fresh plastic units on Days 5 and 8 to facilitate egg collection. Collected eggs were mixed with flea nourishment medium and incubated (28° C. and 80% RH) in darkness for 22 (±3) days to enable flea development. Parameters recorded were flea survival, oviposition control, egg hatchability, pupa control, flea-emergence control and reproduction inhibition.
# [1] = eggs of parent fleas fed 0.09 ng/mL in blood, exposure day 9
# [2] = eggs of parent fleas fed 0.09 ng/mL in blood, exposure day 10
# [3] = eggs of parent fleas fed 0.19 ng/mL in blood, exposure day 3
# [4] = eggs of parent fleas fed 0.19 ng/mL in blood, exposure day 4
# [5] = eggs of parent fleas fed 0.19 ng/mL in blood, exposure day 5
# [6] = eggs of parent fleas fed 0.19 ng/mL in blood, exposure day 8
# [7] = eggs of parent fleas fed 0.19 ng/mL in blood, exposure day 9
# [8] = eggs of parent fleas fed 0.19 ng/mL in blood, exposure day 10
# [9] = eggs of parent fleas fed 0.39 ng/mL in blood, exposure day 3
# [10] = eggs of parent fleas fed 0.39 ng/mL in blood, exposure day 4
# [11] = eggs of parent fleas fed 0.39 ng/mL in blood, exposure day 5
# [12] = eggs of parent fleas fed 0.39 ng/mL in blood, exposure day 8
# [13] = eggs of parent fleas fed 0.39 ng/mL in blood, exposure day 9
# [14] = eggs of parent fleas fed 0.39 ng/mL in blood, exposure day 10
# [15] = eggs of parent fleas fed 0.78 ng/mL in blood, exposure day 3
# [16] = eggs of parent fleas fed 0.78 ng/mL in blood, exposure day 4
# [17] = eggs of parent fleas fed 0.78 ng/mL in blood, exposure day 5
# [18] = eggs of parent fleas fed 0.78 ng/mL in blood, exposure day 8
# [19] = eggs of parent fleas fed 0.78 ng/mL in blood, exposure day 9
# [20] = eggs of parent fleas fed 0.78 ng/mL in blood, exposure day 10
# [21] = eggs of parent fleas fed 1.56 ng/mL in blood, exposure day 3
# [22] = eggs of parent fleas fed 1.56 ng/mL in blood, exposure day 4
# [23] = eggs of parent fleas fed 1.56 ng/mL in blood, exposure day 5
# [24] = eggs of parent fleas fed 1.56 ng/mL in blood, exposure day 8
# [25] = eggs of parent fleas fed 1.56 ng/mL in blood, exposure day 9
# [26] = eggs of parent fleas fed 1.56 ng/mL in blood, exposure day 10
# [27] = eggs of parent fleas fed 3.13 ng/mL in blood, exposure day 3
# [28] = eggs of parent fleas fed 3.13 ng/mL in blood, exposure day 4
# [29] = eggs of parent fleas fed 3.13 ng/mL in blood, exposure day 5
# [30] = eggs of parent fleas fed 3.13 ng/mL in blood, exposure day 8
# [31] = eggs of parent fleas fed 3.13 ng/mL in blood, exposure day 9
# [32] = eggs of parent fleas fed 3.13 ng/mL in blood, exposure day 10
# [33] = eggs of parent fleas fed 6.25 ng/mL in blood, exposure day 3
# [34] = eggs of parent fleas fed 6.25 ng/mL in blood, exposure day 4
# [35] = eggs of parent fleas fed 6.25 ng/mL in blood, exposure day 5
# [36] = eggs of parent fleas fed 6.25 ng/mL in blood, exposure day 8
# [37] = eggs of parent fleas fed 6.25 ng/mL in blood, exposure day 9
# [38] = eggs of parent fleas fed 6.25 ng/mL in blood, exposure day 10
# [39] = eggs of parent fleas fed 12.5 ng/mL in blood, exposure day 3
# [40] = eggs of parent fleas fed 12.5 ng/mL in blood, exposure day 8
# [41] = eggs of parent fleas fed 12.5 ng/mL in blood, exposure day 9
smiles,measurement,setting,value
"Cc1cc(C2=NOC(c3cc(Cl)cc(Cl)c3)(C(F)(F)F)C2)ccc1C(=O)NCC(=O)NCC(F)(F)F (centres unmarked) [fluralaner, 4-[5-(3,5-Dichlorophenyl)-5-trifluoromethyl-4,5-dihydroisoxazol-3-yl]-2-methyl-N-[(2,2,2-trifluoro-ethylcarbamoyl)-methyl]-benzamide]",Pupal Development Control,"eggs of parent fleas fed 0.09 ng/mL in blood, exposure day 8",0%
same,Larval Emergence,[1],yes
same,Pupal Development Control,[1],5.9%
same,Larval Emergence,[2],yes
same,Pupal Development Control,[2],2.9%
same,Pupal Development Control,"eggs of parent fleas fed 0.19 ng/mL in blood, arithmetic mean of exposure days",3.1%
same,Larval Emergence,[3],yes
same,Pupal Development Control,[3],8.8%
same,Larval Emergence,[4],yes
same,Pupal Development Control,[4],0.2%
same,Larval Emergence,[5],yes
same,Pupal Development Control,[5],6.8%
same,Larval Emergence,[6],yes
same,Pupal Development Control,[6],0%
same,Larval Emergence,[7],yes
same,Pupal Development Control,[7],2.7%
same,Larval Emergence,[8],yes
same,Pupal Development Control,[8],0%
same,Pupal Development Control,"eggs of parent fleas fed 0.39 ng/mL in blood, arithmetic mean of exposure days",3.6%
same,Larval Emergence,[9],yes
same,Pupal Development Control,[9],9.8%
same,Larval Emergence,[10],yes
same,Pupal Development Control,[10],0%
same,Larval Emergence,[11],yes
same,Pupal Development Control,[11],1.5%
same,Larval Emergence,[12],yes
same,Pupal Development Control,[12],3.3%
same,Larval Emergence,[13],yes
same,Pupal Development Control,[13],6.3%
same,Larval Emergence,[14],yes
same,Pupal Development Control,[14],0.8%
same,Pupal Development Control,"eggs of parent fleas fed 0.78 ng/mL in blood, arithmetic mean of exposure days",12.1%
same,Larval Emergence,[15],yes
same,Pupal Development Control,[15],7.5%
same,Larval Emergence,[16],yes
same,Pupal Development Control,[16],11.4%
same,Larval Emergence,[17],yes
same,Pupal Development Control,[17],16.7%
same,Larval Emergence,[18],yes
same,Pupal Development Control,[18],10.8%
same,Larval Emergence,[19],yes
same,Pupal Development Control,[19],11.9%
same,Larval Emergence,[20],yes
same,Pupal Development Control,[20],14.5%
same,Pupal Development Control,"eggs of parent fleas fed 1.56 ng/mL in blood, arithmetic mean of exposure days",35.1%
same,Larval Emergence,[21],yes
same,Pupal Development Control,[21],35.3%
same,Larval Emergence,[22],yes
same,Pupal Development Control,[22],36.3%
same,Larval Emergence,[23],yes
same,Pupal Development Control,[23],34.6%
same,Larval Emergence,[24],yes
same,Pupal Development Control,[24],35.5%
same,Larval Emergence,[25],yes
same,Pupal Development Control,[25],41.6%
same,Larval Emergence,[26],yes
same,Pupal Development Control,[26],27.2%
same,Pupal Development Control,"eggs of parent fleas fed 3.13 ng/mL in blood, arithmetic mean of exposure days",64.5%
same,Larval Emergence,[27],yes
same,Pupal Development Control,[27],66.3%
same,Larval Emergence,[28],yes
same,Pupal Development Control,[28],68.9%
same,Larval Emergence,[29],yes
same,Pupal Development Control,[29],61.7%
same,Larval Emergence,[30],yes
same,Pupal Development Control,[30],70.3%
same,Larval Emergence,[31],yes
same,Pupal Development Control,[31],62.1%
same,Larval Emergence,[32],yes
same,Pupal Development Control,[32],57.4%
same,Pupal Development Control,"eggs of parent fleas fed 6.25 ng/mL in blood, arithmetic mean of exposure days",88.7%
same,Larval Emergence,[33],yes
same,Pupal Development Control,[33],90.2%
same,Larval Emergence,[34],yes
same,Pupal Development Control,[34],92.4%
same,Larval Emergence,[35],yes
same,Pupal Development Control,[35],87.3%
same,Larval Emergence,[36],yes
same,Pupal Development Control,[36],86.4%
same,Larval Emergence,[37],yes
same,Pupal Development Control,[37],89.9%
same,Larval Emergence,[38],yes
same,Pupal Development Control,[38],86.0%
same,Pupal Development Control,"eggs of parent fleas fed 12.5 ng/mL in blood, arithmetic mean of exposure days",85.1%
same,Larval Emergence,[39],no
same,Pupal Development Control,[39],100%
same,Larval Emergence,[40],yes
same,Pupal Development Control,[40],55.2%
same,Larval Emergence,[41],yes
same,Pupal Development Control,[41],100%
same,Effect on hatching of larvae,,does not affect the hatching of larvae
same,Effect on hatching of larvae,listed as Fluralaner,did not affect the hatching of larvae
same,Adult Flea Emergence Control,"parent fleas fed 0.09 ng/mL in blood, arithmetic mean of exposure days",0.3%
same,Adult Flea Emergence Control,"parent fleas fed 0.09 ng/mL in blood, exposure day 3",1.1%
same,Adult Flea Emergence Control,"parent fleas fed 0.09 ng/mL in blood, exposure day 4",0.5%
same,Adult Flea Emergence Control,"parent fleas fed 0.09 ng/mL in blood, exposure day 5",0%
same,Adult Flea Emergence Control,"parent fleas fed 0.09 ng/mL in blood, exposure day 8",0%
same,Adult Flea Emergence Control,"parent fleas fed 0.09 ng/mL in blood, exposure day 9",0%
same,Adult Flea Emergence Control,"parent fleas fed 0.09 ng/mL in blood, exposure day 10",0%
same,Adult Flea Emergence Control,"parent fleas fed 0.19 ng/mL in blood, arithmetic mean of exposure days",2.2%
same,Adult Flea Emergence Control,"parent fleas fed 0.19 ng/mL in blood, exposure day 3",4.6%
same,Adult Flea Emergence Control,"parent fleas fed 0.19 ng/mL in blood, exposure day 4",0%
same,Adult Flea Emergence Control,"parent fleas fed 0.19 ng/mL in blood, exposure day 5",1.3%
same,Adult Flea Emergence Control,"parent fleas fed 0.19 ng/mL in blood, exposure day 8",0.8%
same,Adult Flea Emergence Control,"parent fleas fed 0.19 ng/mL in blood, exposure day 9",6.7%
same,Adult Flea Emergence Control,"parent fleas fed 0.19 ng/mL in blood, exposure day 10",0%
same,Adult Flea Emergence Control,"parent fleas fed 0.39 ng/mL in blood, arithmetic mean of exposure days",1.1%
same,Adult Flea Emergence Control,"parent fleas fed 0.39 ng/mL in blood, exposure day 3",0%
same,Adult Flea Emergence Control,"parent fleas fed 0.39 ng/mL in blood, exposure day 4",0%
same,Adult Flea Emergence Control,"parent fleas fed 0.39 ng/mL in blood, exposure day 5",0%
same,Adult Flea Emergence Control,"parent fleas fed 0.39 ng/mL in blood, exposure day 8",1.6%
same,Adult Flea Emergence Control,"parent fleas fed 0.39 ng/mL in blood, exposure day 9",5.2%
same,Adult Flea Emergence Control,"parent fleas fed 0.39 ng/mL in blood, exposure day 10",0%
same,Adult Flea Emergence Control,"parent fleas fed 0.78 ng/mL in blood, arithmetic mean of exposure days",1.5%
same,Adult Flea Emergence Control,"parent fleas fed 0.78 ng/mL in blood, exposure day 3",3.8%
same,Adult Flea Emergence Control,"parent fleas fed 0.78 ng/mL in blood, exposure day 4",0%
same,Adult Flea Emergence Control,"parent fleas fed 0.78 ng/mL in blood, exposure day 5",0%
same,Adult Flea Emergence Control,"parent fleas fed 0.78 ng/mL in blood, exposure day 8",3.1%
same,Adult Flea Emergence Control,"parent fleas fed 0.78 ng/mL in blood, exposure day 9",1.8%
same,Adult Flea Emergence Control,"parent fleas fed 0.78 ng/mL in blood, exposure day 10",0%
same,Adult Flea Emergence Control,"parent fleas fed 1.56 ng/mL in blood, arithmetic mean of exposure days",1.7%
same,Adult Flea Emergence Control,"parent fleas fed 1.56 ng/mL in blood, exposure day 3",0%
same,Adult Flea Emergence Control,"parent fleas fed 1.56 ng/mL in blood, exposure day 4",0%
same,Adult Flea Emergence Control,"parent fleas fed 1.56 ng/mL in blood, exposure day 5",0%
same,Adult Flea Emergence Control,"parent fleas fed 1.56 ng/mL in blood, exposure day 8",10.2%
same,Adult Flea Emergence Control,"parent fleas fed 1.56 ng/mL in blood, exposure day 9",0%
same,Adult Flea Emergence Control,"parent fleas fed 1.56 ng/mL in blood, exposure day 10",0%
same,Adult Flea Emergence Control,"parent fleas fed 3.13 ng/mL in blood, arithmetic mean of exposure days",5.9%
same,Adult Flea Emergence Control,"parent fleas fed 3.13 ng/mL in blood, exposure day 3",4.4%
same,Adult Flea Emergence Control,"parent fleas fed 3.13 ng/mL in blood, exposure day 4",11.9%
same,Adult Flea Emergence Control,"parent fleas fed 3.13 ng/mL in blood, exposure day 5",3.2%
same,Adult Flea Emergence Control,"parent fleas fed 3.13 ng/mL in blood, exposure day 8",8.6%
same,Adult Flea Emergence Control,"parent fleas fed 3.13 ng/mL in blood, exposure day 9",7.5%
same,Adult Flea Emergence Control,"parent fleas fed 3.13 ng/mL in blood, exposure day 10",0%
same,Adult Flea Emergence Control,"parent fleas fed 6.25 ng/mL in blood, arithmetic mean of exposure days",11.5%
same,Adult Flea Emergence Control,"parent fleas fed 6.25 ng/mL in blood, exposure day 3",29.2%
same,Adult Flea Emergence Control,"parent fleas fed 6.25 ng/mL in blood, exposure day 4",0%
same,Adult Flea Emergence Control,"parent fleas fed 6.25 ng/mL in blood, exposure day 5",0%
same,Adult Flea Emergence Control,"parent fleas fed 6.25 ng/mL in blood, exposure day 8",9.2%
same,Adult Flea Emergence Control,"parent fleas fed 6.25 ng/mL in blood, exposure day 9",30.8%
same,Adult Flea Emergence Control,"parent fleas fed 6.25 ng/mL in blood, exposure day 10",0%
same,Adult Flea Emergence Control,"parent fleas fed 12.5 ng/mL in blood, arithmetic mean of exposure days",100%
same,Adult Flea Emergence Control,"parent fleas fed 12.5 ng/mL in blood, exposure day 8",100%
